Data as given in patent US6476067B1, “N-formyl hydroxylamine derivatives as antibacterial agents” (British Biotech, priority 1998, dated 2002).
Values after ≈ are worked out from the molar mass of the structure shown.

Experiments:
[1] = tested on: Staphylococcus capitis (American Type Culture Collection number 35661); assay: Minimal inhibitory concentration (MIC), broth microdilution; assay type: cell-based; conditions: ATCC35661, S. capitis ATCC 35661, 2×YT broth, 37° C., 18 hours, lowest concentration that inhibited visible growth
Procedure: (§1) Minimal inhibitory concentrations (MIC) of inhibitors against E. colistrain DH5α (Genotype; F-φ80d/acZΔM15Δ(lacZYA-argF)U169 deoR recA1 endA1 hsdR17(rk^−,mk^+)phoA supE44λ^−thi-1 gyrA96 re/A1) obtained from GibcoBRL Life Technologies, or Staphylococcus capitis (American Type Culture Collection number 35661) were determined as follows. Stock solutions of each test compound were prepared by dissolution of the compound in dimethylsulfoxide at 10 mM. For the determination of the minimal inhibitory concentration, two fold serial dilutions were prepared in 2×YT broth (typtone-16 g/1, yeast extract 10 g/1, sodium chloride 5 g/1 obtained from BIO 101 Inc, 1070 Joshua Way, Vista, Calif. 92083, USA) to yield 0.05 ml compound-containing medium per well. Inocula were prepared from cultures grown overnight in 2×YT broth at 37° C. Cell densities were adjusted to absorbance at 660 nm (A660)=0.1; the optical density-standardized preparations were diluted 1:1000 in 2×YT broth; and each well inoculated with 0.05 ml of the diluted bacteria. Microtiter plates were incubated at 37° C. for 18 hours in a humidified incubator. The MIC (μM) was recorded as the lowest drug concentration that inhibited visible growth.

[2] = tested on: E. coli strain DH5α; assay: as above; assay type: cell-based; conditions: Escherichia coli, 2×YT broth, 37° C., 18 hours, lowest concentration that inhibited visible growth
Procedure: as §1

melting point | MIC [1] | MIC [2] | SMILES
76.1 to 78.2 °C | – | – | CCCC[C@H](CN(O)C=O)C(=O)N[C@H](C(=O)OC(C)(C)C)C(C)(C)C [Example 11, 2S-{2R-[(Formyl-hydroxy-amino)-methyl]-hexanoylamino}-3,3-dimethyl-butyric Acid Tert-butyl Ester]
– | 25 µM (≈ 10.1 µg/mL) | 200 to 300 µM (≈ 80.9 to 121 µg/mL) | CCCC[C@H](CN(O)C=O)C(=O)N[C@@H](Cc1ccccc1)C(=O)OC1CCCC1 [Example 4, 2S-{2R-[(Formyl-hydroxy-amino)-methyl]-hexanoylamino}-3-phenyl-propionic Acid Cyclopentyl Ester]
76.8 to 78.5 °C | – | – | O=CN(O)C[C@@H](CC1CCCC1)C(=O)N[C@@H](Cc1ccccc1)C(=O)OC1CCCC1 [Example 16, 2S-[2R-Cyclopentylmethyl-3-(formyl-hydroxy-amino)-propionylamino]-3-phenyl-propionic Acid Cyclopentyl Ester]
– | 50 µM (≈ 17.8 µg/mL) | 100 µM (≈ 35.6 µg/mL) | CCCCC(CN(O)C=O)C(=O)N[C@H](C(=O)OC1CCCC1)C(C)C (stereo partly drawn) [Example 6, 2S-{2R-[(Formyl-hydroxy-amino)methyl]-hexanoylamino}-3-methyl Butyric Acid Cyclopentyl Ester]
63.5 to 64.5 °C | 200 µM (≈ 63.3 µg/mL) | 50 µM (≈ 15.8 µg/mL) | CCCC[C@H](CN(O)C=O)C(=O)N[C@H](C(=O)OC)C(C)(C)C [Example 5, 2S-{2R-[(Formyl-hydroxy-amino)methyl]-hexanoylamino}-3,3-dimethyl Butyric Acid Methyl Ester]
– | 200 to 300 µM (≈ 83.7 to 126 µg/mL) | > 200 µM | CC(C)C[C@@H](C(=O)N[C@@H](Cc1ccccc1)C(=O)OC1CCCC1)C(C)N(O)C=O (stereo partly drawn) [Example 2, 2S-{2R-[1-(R,S)-(Formyl-hydroxy-amino)-ethyl]-4-methyl-pentanoylamino}-3-phenylpropionic Acid Cyclopentyl Ester]
– | 12.5 µM (≈ 4.63 µg/mL) | 50 µM (≈ 18.5 µg/mL) | CCCC[C@H](CN(O)C=O)C(=O)N[C@H](C(=O)OC1CCCC1)C(C)(C)C [Example 3, 2S{-2R-[(Formyl-hydroxy-amino)-methyl]-hexanoylamino}-3,3-dimethyl Butyric Acid Cyclopentyl Ester]
– | 12.5 µM (≈ 5.48 µg/mL) | 500 µM (≈ 219 µg/mL) | O=CN(O)CC(Cc1ccccc1)C(=O)N[C@@H](Cc1ccccc1)C(=O)OC1CCCC1 (stereo partly drawn) [Example 1, 2S-[2-(R,S)-Benzyl-3-(formyl-hydroxy-amino)-propionylamino]-3-phenyl-propionic acid cyclopentyl ester]
